Results taken from patent US9708336B2, “Metallo-beta-lactamase inhibitors” (priority 2014, dated 2017).
Where two headings read alike, the source gives them in different places.

Assays:
[1] = target: NDM-1 (Klebsiella pneumoniae, UniProt C7C422); test: biochemical; format: biochemical; details: read-out: NDM-1 IC50
[2] = target: IMP-1 (Serratia marcescens, UniProt P52699); test: biochemical; format: biochemical; details: read-out: IMP-1 IC50
[3] = target: VIM-1 (Pseudomonas aeruginosa (strain ATCC 15692 / DSM 22644 / CIP 104116 / JCM 14847 / LMG 12228 / 1C / PRS 101 / PAO1), UniProt A0A0F7KYQ8); test: Enzyme activity: determination of IC50, fluorescence assay with CCF2-FA substrate (VIM-1); format: biochemical
[4] = tested on: Escherichia coli expressing NDM-1 (CLB30016); test: Antibiotic potentiation activity: synergistic concentration (MITC95) with imipenem, OD600 growth; format: cell-based; details: for Escherichia coli expressing NDM-1 (CLB 30016) MITC95: concentration giving 95% inhibition of bacterial growth
Procedure, shortened: (§1)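 Inoculum: saline suspension of overnight colonies, 1:100 into 1.1× CAMHB. Imipenem 4 μg/ml final (alt. 1 μg/ml) + compound; 35 °C, 22–24 h; absorbance read-out.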

[5] = tested on: Klebsiella pneumoniae expressing VIM-1 (IHMA599644); test: as above; format: cell-based; details: for Klebsiella pneumoniae expressing VIM-1 (IHMA 599644) MITC95: concentration giving 95% inhibition of bacterial growth
Procedure, shortened: as §1

[6] = tested on: Serratia marcescens expressing IMP-1 (CL5741); test: as above; format: cell-based; details: for Serratia marcescens expressing IMP-1 (CL5741) MITC95: concentration giving 95% inhibition of bacterial growth
Procedure, shortened: as §1

[7] = fluorescence assay with CCF2-FA substrate
[8] = CLB30016 (NDM-1), 95% inhibition of bacterial growth
[9] = IHMA599644 (VIM-1), 95% inhibition of bacterial growth
[10] = CL5741 (IMP-1), 95% inhibition of bacterial growth
[11] = NDM-1 enzyme, CCF2-FA fluorescence assay
[12] = IMP-1 enzyme, CCF2-FA fluorescence assay
[13] = VIM-1 enzyme, CCF2-FA fluorescence assay, read-out: VIM-1 IC50
[14] = Escherichia coli expressing NDM-1 (CLB30016), 95% growth inhibition
[15] = Klebsiella pneumoniae expressing VIM-1 (IHMA599644), 95% growth inhibition
[16] = Serratia marcescens expressing IMP-1 (CL5741), 95% growth inhibition
[17] = VIM-1 IC50, fluorescence assay with CCF2-FA substrate
[18] = NDM-1 enzyme, CCF2-FA substrate
[19] = IMP-1 enzyme, CCF2-FA substrate
[20] = (CLB30016, NDM-1), 95% growth inhibition
[21] = Klebsiella pneumoniae IHMA599644 (VIM-1), 95% growth inhibition
[22] = Serratia marcescens CL5741 (IMP-1), 95% growth inhibition

Sequence of IMP-1 (P52699 whole entry, looked up): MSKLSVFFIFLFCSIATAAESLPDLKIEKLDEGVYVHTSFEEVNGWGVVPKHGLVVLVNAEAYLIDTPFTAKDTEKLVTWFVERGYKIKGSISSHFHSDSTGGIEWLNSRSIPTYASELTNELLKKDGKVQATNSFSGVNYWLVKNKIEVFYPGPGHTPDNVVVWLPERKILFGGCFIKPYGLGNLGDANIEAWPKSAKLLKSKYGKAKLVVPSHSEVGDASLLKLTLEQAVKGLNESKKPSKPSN
Sequence of NDM-1 (C7C422 whole entry, looked up, species assumed): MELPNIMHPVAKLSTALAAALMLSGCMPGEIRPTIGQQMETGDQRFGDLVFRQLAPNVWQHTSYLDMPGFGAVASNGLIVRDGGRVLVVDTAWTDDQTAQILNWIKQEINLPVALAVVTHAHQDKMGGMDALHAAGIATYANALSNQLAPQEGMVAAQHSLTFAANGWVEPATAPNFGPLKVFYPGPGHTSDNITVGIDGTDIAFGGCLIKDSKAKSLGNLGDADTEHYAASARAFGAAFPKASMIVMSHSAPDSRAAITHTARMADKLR

SMILES: CN(C)c1ccc(C(F)(F)F)c(S(N)(=O)=O)c1-c1nnn[nH]1 [Example 784, 3-(dimethylamino)-2-(1H-tetrazol-5-yl)-6-(trifluoromethyl) benzenesulfonamide]
- IC50 [1, 7]: 41.7 nM
- IC50 [2, 7]: 48.3 nM
- IC50 ([3]; fluorescence assay with CCF2-FA substrate, read-out: VIM-1 IC50): 15.5 nM
- Escherichia coli MITC95 [4, 8]: 3.125 µM
- Klebsiella pneumoniae MITC95 [5, 9]: 31.25 µM
- Serratia marcescens MITC95 [6, 10]: 3.125 µM

SMILES: Cc1cnc(-c2cccc(S(N)(=O)=O)c2-c2nn[nH]n2)cn1 [Example 248, 3-(5-Methylpyrazin-2-yl)-2-(2H-tetrazol-5-yl)benzenesulfonamide]
- IC50 [1, 11]: 4.49 nM
- IC50 [2, 12]: 134 nM
- IC50 [3, 13]: 132 nM
- Escherichia coli MITC95 [4, 14]: 0.1875 µM
- Klebsiella pneumoniae MITC95 [5, 15]: 12.5 µM
- Serratia marcescens MITC95 [6, 16]: 4.688 µM

SMILES: NS(=O)(=O)c1cccc(-c2ccc(CN3CCC(CO)C3)cc2)c1-c1nnn[nH]1 (stereo in doubt) [Example 391, 4′-{[(3S)-3-(hydroxymethyl)pyrrolidin-1-yl]methyl}-2-(1H-tetrazol-5-yl)biphenyl-3-sulfonamide]
- IC50 [1, 11]: 18.9 nM
- IC50 [2, 12]: 348 nM
- IC50 ([3]; VIM-1 IC50, VIM-1 enzyme, CCF2-FA fluorescence assay): 401 nM
- Escherichia coli MITC95 [4, 14]: 1.172 µM
- Klebsiella pneumoniae MITC95 [5, 15]: 50 µM
- Serratia marcescens MITC95 [6, 16]: 2.344 µM

SMILES: NS(=O)(=O)c1cccc(CCc2ccccc2)c1-c1nnn[nH]1 [Example 154, 3-phenethyl-2-(1H-tetrazol-5-yl)benzenesulfonamide]
- IC50 [1, 7]: 3.28 nM
- IC50 [2, 7]: 10.8 nM
- IC50 [3, 17]: 80.8 nM
- Escherichia coli expressing NDM-1 (CLB 30016) MITC95 [4]: 2.344 µM
- Klebsiella pneumoniae expressing VIM-1 (IHMA 599644) MITC95 [5]: 100 µM
- Serratia marcescens expressing IMP-1 (CL5741) MITC95 [6]: 0.3906 µM

SMILES: N#Cc1nc2c(-c3ccc(C(F)(F)F)c(S(N)(=O)=O)c3-c3nnn[nH]3)cccc2s1 [Example 483, 3-(2-Cyanobenzo[d]thiazol-4-yl)-2-(1H-tetrazol-5-yl)-6-(trifluoromethyl)benzenesulfonamide]
- IC50 [1, 11]: 0.755 nM
- IC50 [2, 12]: 2.12 nM
- IC50 [3, 13]: 0.216 nM
- Escherichia coli MITC95 [4, 14]: 6.25 µM
- Klebsiella pneumoniae MITC95 [5, 15]: 12.5 µM
- Serratia marcescens MITC95 [6, 16]: 25 µM

SMILES: NS(=O)(=O)c1c(C(F)(F)F)ccc(-c2ccc(C3CCN(C4CNC4)CC3)cc2)c1-c1nnn[nH]1 [Example 796, 4′-(1-azetidin-3-ylpiperidin-4-yl)-2-(1H-tetrazol-5-yl)-4-(trifluoromethyl)biphenyl-3-sulfonamide]
- IC50 [1, 7]: 2.06 nM
- IC50 [2, 7]: 0.345 nM
- IC50 [3, 17]: 18 nM
- Escherichia coli MITC95 [4, 8]: 6.25 µM
- Klebsiella pneumoniae MITC95 [5, 9]: >200 µM
- Serratia marcescens MITC95 [6, 10]: 6.25 µM

SMILES: CN(c1ccnc(S(N)(=O)=O)c1-c1nnn[nH]1)C1CCCCC1 [Example 232, 4-[cyclohexyl(methyl)amino]-3-(1H-tetrazol-5-yl)pyridine-2-sulfonamide]
- IC50 [1, 7]: 892 nM
- IC50 [2, 7]: 7640 nM
- IC50 [3, 17]: 166 nM
- Escherichia coli expressing NDM-1 (CLB 30016) MITC95 [4]: 50 µM
- Klebsiella pneumoniae expressing VIM-1 (IHMA 599644) MITC95 [5]: 150 µM
- Serratia marcescens expressing IMP-1 (CL5741) MITC95 [6]: >200 µM

SMILES: NS(=O)(=O)c1c(C(F)(F)F)ccc(-c2ccc(C3CCCN3)cc2)c1-c1nnn[nH]1 (stereo not drawn) [Example 716, 4′-pyrrolidin-2-yl-2-(1H-tetrazol-5-yl)-4-(trifluoromethyl)biphenyl-3-sulfonamide]
- IC50 [1, 18]: 8.07 nM
- IC50 [2, 19]: 5.43 nM
- IC50 ([3]; VIM-1 IC50, VIM-1 enzyme, CCF2-FA substrate): 2.79 nM
- Escherichia coli MITC95 [4, 20]: 6.25 µM
- Klebsiella pneumoniae MITC95 [5, 21]: 25 µM
- Serratia marcescens MITC95 [6, 22]: 3.125 µM

SMILES: Nc1nc2cccc(-c3ccc(CC4CCNCC4)c(S(N)(=O)=O)c3-c3nn[nH]n3)c2[nH]1 [Example 612, 3-(2-amino-3H-benzo[d]imidazol-4-yl)-6-(piperidin-4-ylmethyl)-2-(2H-tetrazol-5-yl)benzenesulfonamide]
- IC50 [1, 18]: 1.63 nM
- IC50 [2, 19]: 65.5 nM
- IC50 ([3]; VIM-1 enzyme, CCF2-FA substrate, read-out: VIM-1 IC50): 7.23 nM
- Escherichia coli MITC95 [4, 20]: 0.5 µM
- Klebsiella pneumoniae MITC95 [5, 21]: 1.281 µM
- Serratia marcescens MITC95 [6, 22]: 2.563 µM
